Source: ChEMBL document CHEMBL4052648, “Synthesis and evaluation of c-di-4'-thioAMP as an artificial ligand for c-di-AMP riboswitch” (Bioorg Med Chem, 2017)

Experiments:
YybT = assay: Drug metabolism assessed as recombinant Bacillus subtilis YybT-mediated compound hydrolysis by measuring half life at 100 uM by reversed-phase HPLC method; format: ADME; settings: recombinant Bacillus subtilis YybT enzyme
[1] = Binding affinity to Bacillus substilis 5'-32p-labelled 165 nucleotide RNA assessed as reduction in RNA cleavage measured within 40 hrs by PAGE analysis; design: species or system Bacillus subtilis; settings: read-out: Kd(app)
[2] = Drug level treated with c-di-4'-thioAMP assessed as recombinant Bacillus subtilis YybT-mediated metabolite formation at 100 uM by LRMS analysis; format: ADME
[3] = Drug metabolism assessed as recombinant Bacillus subtilis YybT-mediated compound degradation by measuring retention time at 100 uM by reversed-phase HPLC analysis; format: ADME
[4] = Drug metabolism assessed as recombinant Bacillus subtilis YybT-mediated ((2R,3S,4R,5R)-5-(6-amino-9H-purin-9-yl)-3-((((2R,3S,4R,5R)-5-(6-amino-9H-purin-9-yl)-3,4-dihydroxytetrahydrothiophen-2-yl)methoxy)(hydroxy)phosphoryloxy)-4-hydroxytetrahydrothiophen-2-yl)methyl dihydrogen phosphate formation at 100 uM by LRMS analysis; format: ADME

half-life at 100 µM (YybT) [h]	Kd [1] [µM]	Drug metabolism [2]	Retention_time [3] [min]	Drug metabolism [4]	Compound
1	≤ 0.0033	–	–	–	Nc1ncnc2c1ncn2[C@@H]1O[C@@H]2CO[P@@](=O)(O)O[C@H]3[C@@H](O)[C@H](n4cnc5c(N)ncnc54)O[C@@H]3CO[P@@](=O)(O)O[C@H]2[C@H]1O
–	–	Metabolite_Detected	–	–	Nc1ncnc2c1ncn2[C@@H]1S[C@H](COP(=O)(O)O[C@H]2[C@@H](O)[C@H](n3cnc4c(N)ncnc43)S[C@@H]2COP(=O)(O)O)[C@@H](O)[C@H]1O
> 12	34.8	–	12.3	Metabolite_Detected	Nc1ncnc2c1ncn2[C@@H]1S[C@@H]2COP(=O)(O)O[C@H]3[C@@H](O)[C@H](n4cnc5c(N)ncnc54)S[C@@H]3COP(=O)(O)O[C@H]2[C@H]1O
